Assay results as given in ChEMBL document CHEMBL3297661, “1-Substituted-5-[(3,5-dinitrobenzyl)sulfanyl]-1H-tetrazoles and their isosteric analogs: A new class of selective antitubercular agents active against drug-susceptible and multidrug-resistant mycobacteria” (Eur J Med Chem, 2014).
Converted amounts (≈) assume the structure as drawn.

Legend:
Pseudomonas aeruginosa [1] = test: Antibacterial activity against Pseudomonas aeruginosa ATCC 9027 after 48 hrs by broth microdilution method; format: functional; details: ATCC 9027, 48 h
Candida albicans [2] = test: Antifungal activity against Candida albicans ATCC 44859 after 24 hrs by broth microdilution method; format: functional; details: ATCC 44859, 24 h
Candida albicans [3] = test: Antifungal activity against Candida albicans ATCC 44859 after 48 hrs by broth microdilution method; format: functional; details: ATCC 44859, 48 h
Candida tropicalis [4] = test: Antifungal activity against Candida tropicalis 156 after 24 hrs by broth microdilution method; format: functional; details: Candida tropicalis, 156, 24 h
Candida tropicalis [5] = test: Antifungal activity against Candida tropicalis 156 after 48 hrs by broth microdilution method; format: functional; details: Candida tropicalis, 156, 48 h
Pichia kudriavzevii [6] = test: Antifungal activity against Candida krusei E28 after 24 hrs by broth microdilution method; format: functional; details: E28, 24 h
Pichia kudriavzevii [7] = test: Antifungal activity against Candida krusei E28 after 48 hrs by broth microdilution method; format: functional; details: E28, 48 h
Nakaseomyces glabratus [8] = test: Antifungal activity against Candida glabrata 20/I after 24 hrs by broth microdilution method; format: functional
Nakaseomyces glabratus [9] = test: Antifungal activity against Candida glabrata 20/I after 48 hrs by broth microdilution method; format: functional
Trichosporon asahii [10] = test: Antifungal activity against Trichosporon asahii 1188 after 24 hrs by broth microdilution method; format: functional; details: Trichosporon asahii, 1188, 24 h
Trichosporon asahii [11] = test: Antifungal activity against Trichosporon asahii 1188 after 48 hrs by broth microdilution method; format: functional; details: Trichosporon asahii, 1188, 48 h
Aspergillus fumigatus [12] = test: Antifungal activity against Aspergillus fumigatus 231 after 24 hrs by broth microdilution method; format: functional, organism-based; details: Aspergillus fumigatus, 231, 24 h
Aspergillus fumigatus [13] = test: Antifungal activity against Aspergillus fumigatus 231 after 48 hrs by broth microdilution method; format: functional, organism-based; details: Aspergillus fumigatus, 231, 48 h
Lichtheimia corymbifera [14] = test: Antifungal activity against Absidia corymbifera 272 after 24 hrs by broth microdilution method; format: functional, organism-based; details: Lichtheimia corymbifera, 272, 24 h
Lichtheimia corymbifera [15] = test: Antifungal activity against Absidia corymbifera 272 after 48 hrs by broth microdilution method; format: functional, organism-based; details: Lichtheimia corymbifera, 272, 48 h
[16] = tested on: Trichophyton mentagrophytes; test: Antifungal activity against Trichophyton mentagrophytes 445 after 72 hrs by broth microdilution method; format: functional, organism-based; details: Trichophyton mentagrophytes, 445, 72 h
[17] = tested on: Trichophyton mentagrophytes; test: Antifungal activity against Trichophyton mentagrophytes 445 after 120 hrs by broth microdilution method; format: functional, organism-based; details: Trichophyton mentagrophytes, 445, 120 h
[18] = Cytotoxicity against human HeLa cells assessed as cell viability at 30 uM after 48 hrs by MTT assay; format: cell-based; details: read-out: Activity
[19] = Cytotoxicity against human HuH7 cells assessed as cell viability at 30 uM after 48 hrs by MTT assay; format: cell-based, Huh-7; details: read-out: Activity
[20] = Cytotoxicity against human HepG2 cells assessed as cell viability at 30 uM after 48 hrs by MTT assay; format: cell-based; details: read-out: Activity
[21] = Cytotoxicity against MDCK2 cells assessed as cell viability at 30 uM after 48 hrs by MTT assay; format: cell-based, Canis lupus familiaris, MDCK-II; details: dog, read-out: Activity
HeLa = test: Cytotoxicity against human HeLa cells assessed as reduction in cell viability after 48 hrs by MTT assay; format: cell-based
[22] = Cytotoxicity against human HuH7 cells assessed as reduction in cell viability after 48 hrs by MTT assay; format: cell-based; details: Huh-7, 48 h
[23] = Cytotoxicity against MDCK2 cells assessed as reduction in cell viability after 48 hrs by MTT assay; format: cell-based; details: Canis lupus familiaris, MDCK-II
HepG2 = test: Cytotoxicity against human HepG2 cells assessed as reduction in cell viability after 48 hrs by MTT assay; format: cell-based; details: HepG2, 48 h
[24] = tested on: Mycobacterium tuberculosis; test: Antimycobacterial activity against Mycobacterium tuberculosis CNCTC My 331/88 after 14 days by micromethod; format: functional; details: CNCTC My 331/88, 336 h
[25] = tested on: Mycobacterium tuberculosis; test: Antimycobacterial activity against Mycobacterium tuberculosis CNCTC My 331/88 after 21 days by micromethod; format: functional; details: CNCTC My 331/88, 504 h
Mycobacterium avium [26] = test: Antimycobacterial activity against Mycobacterium avium CNCTC My 330/88 after 14 days by micromethod; format: functional; details: CNCTC My 330/88, 336 h
Mycobacterium avium [27] = test: Antimycobacterial activity against Mycobacterium avium CNCTC My 330/88 after 21 days by micromethod; format: functional; details: CNCTC My 330/88, 504 h
Mycobacterium kansasii [28] = test: Antimycobacterial activity against Mycobacterium kansasii CNCTC My 235/80 after 7 days by micromethod; format: functional; details: CNCTC My 235/80, 168 h
Mycobacterium kansasii [29] = test: Antimycobacterial activity against Mycobacterium kansasii CNCTC My 235/80 after 14 days by micromethod; format: functional; details: CNCTC My 235/80, 336 h
Mycobacterium kansasii [30] = test: Antimycobacterial activity against Mycobacterium kansasii CNCTC My 235/80 after 21 days by micromethod; format: functional; details: CNCTC My 235/80, 504 h
Mycobacterium kansasii [31] = test: Antimycobacterial activity against Mycobacterium kansasii 6509/96 after 7 days by micromethod; format: functional; details: 6509/96, 168 h
Mycobacterium kansasii [32] = test: Antimycobacterial activity against Mycobacterium kansasii 6509/96 after 14 days by micromethod; format: functional; details: 6509/96, 336 h
Mycobacterium kansasii [33] = test: Antimycobacterial activity against Mycobacterium kansasii 6509/96 after 21 days by micromethod; format: functional; details: 6509/96, 504 h
Staphylococcus aureus [34] = test: Antibacterial activity against Staphylococcus aureus ATCC 6538 after 24 hrs by broth microdilution method; format: functional; details: ATCC 6538, 24 h
Staphylococcus aureus [35] = test: Antibacterial activity against Staphylococcus aureus ATCC 6538 after 48 hrs by broth microdilution method; format: functional; details: ATCC 6538, 48 h
Staphylococcus aureus [36] = test: Antibacterial activity against methicillin-resistant Staphylococcus aureus H 5996/08 after 24 hrs by broth microdilution method; format: functional; details: H 5996/08, 24 h
Staphylococcus aureus [37] = test: Antibacterial activity against methicillin-resistant Staphylococcus aureus H 5996/08 after 48 hrs by broth microdilution method; format: functional; details: H 5996/08, 48 h
[38] = tested on: Staphylococcus epidermidis; test: Antibacterial activity against Staphylococcus epidermidis H 6966/08 after 24 hrs by broth microdilution method; format: functional; details: H 6966/08, 24 h
[39] = tested on: Staphylococcus epidermidis; test: Antibacterial activity against Staphylococcus epidermidis H 6966/08 after 48 hrs by broth microdilution method; format: functional; details: H 6966/08, 48 h
Enterococcus faecalis [40] = test: Antibacterial activity against Enterococcus faecalis J 14365/08 after 24 hrs by broth microdilution method; format: functional; details: J 14365/08, 24 h
Enterococcus faecalis [41] = test: Antibacterial activity against Enterococcus faecalis J 14365/08 after 48 hrs by broth microdilution method; format: functional; details: J 14365/08, 48 h
Escherichia coli [42] = test: Antibacterial activity against Escherichia coli ATCC 8739 after 24 hrs by broth microdilution method; format: functional; details: ATCC 8739, ATCC 8739, 24 h
Escherichia coli [43] = test: Antibacterial activity against Escherichia coli ATCC 8739 after 48 hrs by broth microdilution method; format: functional; details: ATCC 8739, ATCC 8739, 48 h
Klebsiella pneumoniae [44] = test: Antibacterial activity against Klebsiella pneumoniae D 11750/08 after 24 hrs by broth microdilution method; format: functional; details: D 11750/08, 24 h
Klebsiella pneumoniae [45] = test: Antibacterial activity against Klebsiella pneumoniae D 11750/08 after 48 hrs by broth microdilution method; format: functional; details: D 11750/08, 48 h
Klebsiella pneumoniae [46] = test: Antibacterial activity against extended spectrum beta-lactamase producing Klebsiella pneumoniae J 14368/08 after 24 hrs by broth microdilution method; format: functional; details: J 14368/08, 24 h
Klebsiella pneumoniae [47] = test: Antibacterial activity against extended spectrum beta-lactamase producing Klebsiella pneumoniae J 14368/08 after 48 hrs by broth microdilution method; format: functional; details: J 14368/08, 48 h
Pseudomonas aeruginosa [48] = test: Antibacterial activity against Pseudomonas aeruginosa ATCC 9027 after 24 hrs by broth microdilution method; format: functional; details: ATCC 9027, 24 h

## O=[N+]([O-])c1ccc(C[Se]c2nnnn2C2CCCCC2)c([N+](=O)[O-])c1
Pseudomonas aeruginosa [1]
  IC95: > 500 µM
Candida albicans [2]
  IC80: 15.6 µM
Candida albicans [3]
  IC80: 15.6 µM
Candida tropicalis [4]
  IC80: > 500 µM
Candida tropicalis [5]
  IC80: > 500 µM
Pichia kudriavzevii [6]
  IC80: > 500 µM
Pichia kudriavzevii [7]
  IC80: > 500 µM
Nakaseomyces glabratus [8]
  IC80: 62.5 µM
Nakaseomyces glabratus [9]
  IC80: 62.5 µM
Trichosporon asahii [10]
  IC80: 62.5 µM
Trichosporon asahii [11]
  IC80: 250 µM
Aspergillus fumigatus [12]
  IC50: > 500 µM
Aspergillus fumigatus [13]
  IC50: > 500 µM
Lichtheimia corymbifera [14]
  IC50: 500 µM
Lichtheimia corymbifera [15]
  IC50: > 500 µM
[16]
  IC50: 31.2 µM
[17]
  IC50: 31.2 µM
[18]
  viability at 48 h, 30 µM: 32%
[19]
  viability at 48 h, 30 µM: 49%
[20]
  viability at 48 h, 30 µM: 4%
[21]
  viability at 48 h, 30 µM: 11%
HeLa
  IC50: 29 µM
[22]
  IC50: > 30 µM
[23]
  IC50: < 7.5 µM
HepG2
  IC50: 11 µM
[24]
  MIC: 4 µM (≈ 1.65 µg/mL)
[25]
  MIC: 8 µM (≈ 3.29 µg/mL)
Mycobacterium avium [26]
  MIC: 32 µM (≈ 13.2 µg/mL)
Mycobacterium avium [27]
  MIC: 32 µM (≈ 13.2 µg/mL)
Mycobacterium kansasii [28]
  MIC: 4 µM (≈ 1.65 µg/mL)
Mycobacterium kansasii [29]
  MIC: 16 µM (≈ 6.58 µg/mL)
Mycobacterium kansasii [30]
  MIC: 16 µM (≈ 6.58 µg/mL)
Mycobacterium kansasii [31]
  MIC: 16 µM (≈ 6.58 µg/mL)
Mycobacterium kansasii [32]
  MIC: 62 µM (≈ 25.5 µg/mL)
Mycobacterium kansasii [33]
  MIC: 62 µM (≈ 25.5 µg/mL)
Staphylococcus aureus [34]
  IC95: 31.2 µM
Staphylococcus aureus [35]
  IC95: 31.2 µM
Staphylococcus aureus [36]
  IC95: 31.2 µM
Staphylococcus aureus [37]
  IC95: 31.2 µM
[38]
  IC95: 15.6 µM
[39]
  IC95: 15.6 µM
Enterococcus faecalis [40]
  IC95: 15.6 µM
Enterococcus faecalis [41]
  IC95: 15.6 µM
Escherichia coli [42]
  IC95: > 500 µM
Escherichia coli [43]
  IC95: > 500 µM
Klebsiella pneumoniae [44]
  IC95: > 500 µM
Klebsiella pneumoniae [45]
  IC95: > 500 µM
Klebsiella pneumoniae [46]
  IC95: > 500 µM
Klebsiella pneumoniae [47]
  IC95: > 500 µM
Pseudomonas aeruginosa [48]
  IC95: > 500 µM

## CN[C@H](CC(C)C)C(=O)N[C@H]1C(=O)N[C@@H](CC(N)=O)C(=O)N[C@H]2C(=O)N[C@H]3C(=O)N[C@H](C(=O)N[C@H](C(=O)O)c4cc(O)cc(O)c4-c4cc3ccc4O)[C@H](O)c3ccc(c(Cl)c3)Oc3cc2cc(c3O[C@@H]2O[C@H](CO)[C@@H](O)[C@H](O)[C@H]2O[C@H]2C[C@](C)(N)[C@H](O)[C@H](C)O2)Oc2ccc(cc2Cl)[C@H]1O [VANCOMYCIN]
Staphylococcus aureus [34]
  IC95: 0.35 µM
Staphylococcus aureus [36]
  IC95: 0.35 µM
[38]
  IC95: 0.35 µM
Enterococcus faecalis [40]
  IC95: 0.7 µM
